Data from US11566007B2, “Ras inhibitors” (Revolution Medicines, Inc., priority 2019, dated 2023).

target: KRAS G12V (Homo sapiens (Human), UniProt P01116+P62937, G12V); assay: Ras-Raf (BRAF RBD) disruption / FRET / MOA assay, KRAS G12V; format: biochemical; conditions: read-out: IC50* KRAS G12V FRET data
Outline: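 Ras:RAF disruption was scored as a fall in TR-FRET ratio relative to DMSO. Compound ranged in 3-fold steps over 10 points from 30 μM final; incubation ran 3 h at 25° C, detection antibodies a further 1.5 h. Reported as IC50.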

Chain of KRAS G12V (P01116-2 other isoform, or with tags, fused parts or gaps G12V): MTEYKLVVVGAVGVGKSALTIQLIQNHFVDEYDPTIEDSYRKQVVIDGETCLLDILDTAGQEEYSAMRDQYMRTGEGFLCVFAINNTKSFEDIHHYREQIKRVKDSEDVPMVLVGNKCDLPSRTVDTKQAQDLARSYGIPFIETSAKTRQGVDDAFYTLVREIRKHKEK
Chain of KRAS G12V (P62937 whole entry): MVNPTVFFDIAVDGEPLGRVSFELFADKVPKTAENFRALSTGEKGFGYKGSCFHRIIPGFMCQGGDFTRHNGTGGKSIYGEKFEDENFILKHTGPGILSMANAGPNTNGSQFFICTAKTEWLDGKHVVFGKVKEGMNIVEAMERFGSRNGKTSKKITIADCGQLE

First: C=CC(=O)N1CC[C@@]2(CCN2C(=O)N(C)[C@H](C(=O)N[C@H]2Cc3nc(cs3)-c3ccc4c(c3)c(c(-c3cccnc3[C@H](C)OC)n4CC)CC(C)(C)COC(=O)[C@@H]3CCCN(N3)C2=O)C(C)C)C1 (atropisomer, axis not shown) [Example A661]
Second: C=CC(=O)N1C[C@H]2CN(C(=O)N(C)[C@H](C(=O)N[C@H]3Cc4nc(cs4)-c4ccc5c(c4)c(c(-c4cccnc4[C@H](C)OC)n5CC)CC(C)(C)COC(=O)[C@@H]4CCCN(N4)C3=O)C(C)C)[C@H]2C1 (atropisomer, axis not shown) [Example A686]
The IC50 of the first is higher: 1 to 10 µM for the first, 0.1 to 1 µM for the second. The second is the more potent here.

Compared with `C=CC(=O)N1CC[C@H](C(=O)N(C)[C@H](C(=O)N[C@H]2Cc3coc(n3)-c3ccc4c(c3)c(c(-c3cccnc3[C@H](C)OC)n4CC)CC(C)(C)COC(=O)[C@@H]3CCCN(N3)C2=O)C(C)C)C1` (atropisomer, axis not shown) [Example A468], `C=CC(=O)N1CCO[C@H]2CN(C(=O)N(C)[C@H](C(=O)N[C@H]3Cc4nc(cs4)-c4ccc5c(c4)c(c(-c4cccnc4[C@H](C)OC)n5CC)CC(C)(C)COC(=O)[C@@H]4CCCN(N4)C3=O)C(C)C)C[C@@H]21` (atropisomer, axis not shown) [Example A544] is lower in IC50: 1 to 10 µM for the first, 0.1 to 1 µM for the second.

`CO[C@@H](C)c1ncccc1-c1c2c3cc(ccc3n1CC(F)(F)F)-c1cc(CF)cc(c1)C[C@H](NC(=O)[C@@H](COC1CN(C(=O)C#CC(C)(C)N(C)C)C1)C(C)C)C(=O)N1CCC[C@H](N1)C(=O)OCC(C)(C)C2` (atropisomer, axis not shown) [Example A589] and `CCn1c(-c2cccnc2[C@H](C)OC)c2c3cc(ccc31)-c1cc(CF)cc(c1)C[C@H](NC(=O)[C@@H](COC1CN(C(=O)C#CC(C)(C)N(C)C)C1)C(C)C)C(=O)N1CCC[C@H](N1)C(=O)OCC(C)(C)C2` (atropisomer, axis not shown) [Example A587] cannot be ordered by IC50: > 10 µM for the first, > 10 µM for the second.

First: CCn1c(-c2cccnc2[C@H](C)OC)c2c3cc(ccc31)-c1csc(n1)C[C@H](NC(=O)C[C@@H]1COC3(CN(C(=O)C#CC(C)(C)N(C)C)C3)O1)C(=O)N1CCC[C@H](N1)C(=O)OCC(C)(C)C2 (atropisomer, axis not shown) [Example A691]
Second: CCn1c(-c2cccnc2[C@H](C)OC)c2c3cc(ccc31)-c1nc(co1)C[C@H](NC(=O)[C@@H](COC1CN(C(=O)C#CC(C)(C)N(C)C)C1)C(C)C)C(=O)N1CCC[C@H](N1)C(=O)OCC(C)(C)C2 (atropisomer, axis not shown) [Example A675, (2R)-2-(((1-(4-(dimethylamino)-4-methylpent-2-ynoyl)azetidin-3-yl)oxy)methyl)-N-((6^3S,4S,Z)-1^1-ethyl-1^2-(2-((S)-1-methoxyethyl)pyridin-3-yl)-10,10-dimethyl-5,7-dioxo-6^1,6^2,6^3,6^4,6^5,6^6-hexahydro-1^1H-8-oxa-2(2,4)-oxazola-1(5,3)-indola-6(1,3)-pyridazinacycloundecaphane-4-yl)-3-methylbutanamide]
The IC50 of the first is lower: 1 to 10 µM for the first, > 10 µM for the second. The first is the more potent here.

First: C=CC(=O)N1CCOC2(CCN(C(=O)N(C)[C@H](C(=O)N[C@H]3Cc4nsc(n4)-c4ccc5c(c4)c(c(-c4cccnc4[C@H](C)OC)n5CC)CC(C)(C)COC(=O)[C@@H]4CCCN(N4)C3=O)C(C)C)CC2)C1 (atropisomer, axis not shown) [Example A545]
Second: CCn1c(-c2cccnc2[C@H](C)OC)c2c3cc(ccc31)-c1cccc(c1)C[C@H](NC(=O)[C@@H](CO[C@@H]1CCN(C(=O)C#CC(C)(C)N(C)C)C1)C(C)C)C(=O)N1CCC[C@H](N1)C(=O)OCC(C)(C)C2 (atropisomer, axis not shown) [Example A584]
The IC50 of the first is lower: 0.1 to 1 µM for the first, 1 to 10 µM for the second.
